Measurements from US8802711B2, “TRPV1 antagonists” (AbbVie Inc., priority 2011, dated 2014).

Key:
[1] = target: T1, human TRPV1 receptor (hTRPV1) (Homo sapiens (Human), UniProt Q8NER1); assay: Capsaicin activation assay (FLIPR intracellular Ca2+); format: cell-based; settings: Table 1; inhibition of capsaicin-induced intracellular Ca2+ increase, HEK293 cells expressing human TRPV1; read-out: hTRPV1 cap IC50
Protocol: Dulbecco's modified Eagle medium (D-MEM) (with 4.5 mg/mL glucose) and fetal bovine serum were obtained from Hyclone Laboratories, Inc. (Logan, Utah). Dulbecco's phosphate-buffered saline (D-PBS) (with 1 mg/mL glucose and 3.6 mg/l Na pyruvate, without phenol red), L-glutamine, hygromycin B, and Lipofectamine® were obtained from Life Technologies (Grand Island, N.Y.). G418 sulfate was obtained from Calbiochem-Novabiochem Corp. (San Diego, Calif.). Capsaicin (8-methyl-N-vanillyl-6-nonenamide) was obtained from Sigma-Aldrich, Co. (St. Louis, Mo.). Fluo-4 AM (N-[4-[6-[(acetyloxy)methoxy]-2,7-difluoro-3-oxo-3H-xanthen-9-yl]-2-[2-[2-[bis[2-[(acetyloxy)methoxy]-2-oxyethyl]amino]-5-methyl phenoxy]ethoxy]phenyl]-N-[2-[(acetyloxy)methoxy]-2-oxyethyl]-glycine, (acetyloxy)methyl ester) was purchased from Molecular Probes (Eugene, Oreg.). […]
The functional activity of compounds at the TRPV1 receptor was determined by measurement of intracellular Ca^2+ levels ([Ca^2+]i) using the Fluorescence Imaging Plate Reader (FLIPR)^TETRA®. All compounds were tested over a 12-point one-third-log concentration range. Compound stocks, 10 mM, were prepared in DMSO, and diluted serially across a 384-well plate using a Bravo BenchCel workstation (Agilent Technologies, Santa Clara, Calif.). A stock concentration of capsaicin (10 mM) was made in DMSO, and diluted in D-PBS to a final concentration of 200 nM (4×). On the day prior to the experiment, recombinant HEK293 cells that stably express human TRPV1 were removed from tissue culture flasks and plated in growth medium into black-walled clear-bottom 384-well Biocoat™ poly-D-lysine assay plates (BD Biosciences, Bedford, Mass.) using a Multidrop® dispenser (ThermoScientific, Waltham, Mass.). On the day of the experiment, growth medium was removed, and the no-wash FLIPR® Calcium-4 dye (λEX=470-495 nm, λEM=515-575 nm; Molecular Devices, Sunnyvale, Calif.) was added to each well using the Multidrop® dispenser. Cells were incubated for 90-120 minutes in the dark at room temperature. Test compounds were added to the cells 3 minutes prior to the addition of 200 nM capsaicin (4×), and the final assay volume was 80 μL. Fluorescence readings were made at 1 to 5 second intervals over the course of the experimental run. The peak increase in relative fluorescence units (minus baseline) was calculated, and expressed as a percentage of the 50 nM capsaicin (control) response.

[2] = target: T1, human TRPV1 receptor (hTRPV1); assay: Acid activation assay (pH 5.0, FLIPR intracellular Ca2+); format: cell-based; settings: Table 1; 37.5 μM antagonist, percentage of the maximal pH 5.0-induced response remaining; read-out: hTRPV1 H+ (max % remain)
Protocol: Dulbecco's modified Eagle's medium (DMEM) with 4.5 mg/mL D-glucose, fetal bovine serum, L-glutamine, and 2-morpholinoethanesulfonic acid (MES) were purchased from Sigma-Aldrich Co. (St. Louis, Mo.). Dulbecco's phosphate-buffered saline (DPBS) with Ca^2+, Mg^2+, and 1 mg/mL D-glucose (pH 7.4), Geneticin®, 0.25% trypsin-1 mM EDTA, and penicillin-streptomycin were purchased from Invitrogen Corp. (Carlsbad, Calif.). The FLIPR® Calcium 4 assay kit was purchased from Molecular Devices (Sunnyvale, Calif.).
The cDNAs for the human TRPV1 receptor (hTRPV1) were isolated by reverse transcriptase-polymerase chain reaction (RT-PCR) from human small intestine poly A+RNA supplied by Clontech (Palo Alto, Calif.) using primers designed surrounding the initiation and termination codons identical to the published sequences (Hayes et al. Pain 2000, 88, 205-215). The resulting cDNA PCR products were subcloned into pCIneo mammalian expression vector (Promega) and fully sequenced using fluorescent dye-terminator reagents (Prism, Perkin-Elmer Applied Biosystems Division) and a Perkin-Elmer Applied Biosystems Model 373 DNA sequencer or Model 310 genetic analyzer. Expression plasmids encoding the hTRPV1 cDNA were transfected individually into 1321N1 human astrocytoma cells using Lipofectamine. Forty-eight hours after transfection, the neomycin-resistant cells were selected with growth medium containing 800 μg/mL Geneticin (Gibco BRL). Surviving individual colonies were isolated and screened for TRPV1 receptor activity. Cells expressing recombinant homomeric TRPV1 receptors were maintained at 37° C. in DMEM containing 4 mM L-glutamine, 300 μg/mL G418 (Cal-biochem) and 10% fetal bovine serum under a humidified 5% CO2 atmosphere.
The functional activity of compounds at the TRPV1 receptor was determined by measurement of intracellular Ca^2+ levels ([Ca^2+]i) using the Fluorescence Imaging Plate Reader (FLIPR)^TETRA®. All compounds were tested over a 12-point one-half-log concentration range. Compound stocks, 10 mM, were prepared in DMSO, and diluted serially across a 384-well plate using a Bravo BenchCel workstation (Agilent Technologies, Santa Clara, Calif.).
On the day of the experiment growth medium was removed, and the no-wash FLIPR® Calcium-4 dye (λEX=470-495 nm, λEM=515-575 nm) was added to each well using the Multidrop® dispenser. Cells were incubated for 90-120 minutes in the dark at 25° C. Test compounds were dissolved in DMSO, and plates were prepared using an Agilent Bravo workstation (Agilent Technologies Inc., Santa Clara, Calif.). Compounds were added to the cells 3 minutes prior to the addition of a pH 5.0 solution. Reagents were delivered at a rate of 40 μL/sec, and the final assay volume was 80 μL. Acidic pH solutions were prepared by titration of DPBS/MES with 1 N HCl. The intensity of the fluorescence was captured and digitally transferred to an interfaced PC.

T1 sequence (Q8NER1 whole entry): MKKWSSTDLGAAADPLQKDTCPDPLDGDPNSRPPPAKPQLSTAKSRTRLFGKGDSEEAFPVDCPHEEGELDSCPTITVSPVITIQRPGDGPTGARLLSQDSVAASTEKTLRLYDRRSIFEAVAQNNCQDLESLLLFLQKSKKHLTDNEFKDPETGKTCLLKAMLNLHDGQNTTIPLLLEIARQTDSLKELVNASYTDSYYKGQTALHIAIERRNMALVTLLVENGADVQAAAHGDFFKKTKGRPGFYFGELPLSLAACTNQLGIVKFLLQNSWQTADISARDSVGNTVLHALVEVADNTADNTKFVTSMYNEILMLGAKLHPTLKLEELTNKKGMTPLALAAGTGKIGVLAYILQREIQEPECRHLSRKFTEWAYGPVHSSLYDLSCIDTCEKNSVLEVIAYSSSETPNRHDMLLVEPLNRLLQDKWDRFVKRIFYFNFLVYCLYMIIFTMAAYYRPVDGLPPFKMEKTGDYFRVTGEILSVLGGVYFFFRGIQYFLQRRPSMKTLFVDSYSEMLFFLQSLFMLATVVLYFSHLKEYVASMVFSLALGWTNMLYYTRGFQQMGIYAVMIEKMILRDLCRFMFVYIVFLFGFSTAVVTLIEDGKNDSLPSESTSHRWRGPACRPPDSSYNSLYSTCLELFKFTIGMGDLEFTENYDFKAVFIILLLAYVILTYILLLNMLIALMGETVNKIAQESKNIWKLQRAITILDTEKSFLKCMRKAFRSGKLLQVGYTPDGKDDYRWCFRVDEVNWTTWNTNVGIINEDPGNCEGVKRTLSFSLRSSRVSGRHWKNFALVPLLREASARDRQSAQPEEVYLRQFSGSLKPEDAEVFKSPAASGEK

| Structure (SMILES) | IC50 [1] [nM] | remaining activity at 37.5 µM [2] [%] |
| --- | --- | --- |
| O=C(Nc1cccc2[nH]ncc12)N[C@@H]1CCC[C@@H](c2ccc(C(F)(F)F)cc2)C1 [Example 31, 1-(1H-indazol-4-yl)-3-{(1R,3R)-3-[4-(trifluoromethyl)phenyl]cyclohexyl}urea] | 1840 | 35 |
| O=C(Nc1cccc2[nH]ncc12)N[C@H]1CCC[C@H](c2ccc(C(F)(F)F)cc2)C1 [Example 32, 1-(1H-indazol-4-yl)-3-{(1S,3S)-3-[4-(trifluoromethyl)phenyl]cyclohexyl}urea] | 795 | 32 |
| O=C(Nc1cccc2[nH]ncc12)N[C@H]1CCC[C@@H](c2ccc(C(F)(F)F)cc2)C1 [Example 33, 1-(1H-indazol-4-yl)-3-{(1S,3R)-3-[4-(trifluoromethyl)phenyl]cyclohexyl}urea] | 8640 | 68 |
| O=C(Nc1cccc2[nH]ncc12)N[C@H]1CCC[C@H](c2ccccc2)C1 [Example 35, 1-(1H-indazol-4-yl)-3-[(1S,3S)-3-phenylcyclohexyl]urea] | 292 | 11 |
| O=C(Nc1cccc2[nH]ncc12)N[C@@H]1CCC[C@H](c2ccccc2)C1 [Example 36, 1-(1H-indazol-4-yl)-3-[(1R,3S)-3-phenylcyclohexyl]urea] | 56 | 8 |
| CC(C)(C)c1ccc(C2CCC(NC(=O)Nc3cccc4[nH]ncc34)C2)cc1 (stereo not drawn) [Example 37, 1-[3-(4-tert-butylphenyl)cyclopentyl]-3-(1H-indazol-4-yl)urea] | 427 | 6 |
| COc1ccc(C2CCC(NC(=O)Nc3cccc4[nH]ncc34)C2)cc1 (stereo not drawn) [Example 40, 1-(1H-indazol-4-yl)-3-[3-(4-methoxyphenyl)cyclopentyl]urea] | 78 | 1 |
| O=C(Nc1cccc2[nH]ncc12)N[C@H]1CC[C@H](c2ccc(C(F)(F)F)cc2)C1 [Example 41, 1-(1H-indazol-4-yl)-3-{(1S,3S)-3-[4-(trifluoromethyl)phenyl]cyclopentyl}urea] | 311 | 1 |
| O=C(Nc1cccc2[nH]ncc12)N[C@@H]1CC[C@H](c2ccc(C(F)(F)F)cc2)C1 [Example 42, 1-(1H-indazol-4-yl)-3-{(1R,3S)-3-[4-(trifluoromethyl)phenyl]cyclopentyl}urea] | 17 | 3 |
| O=C(Nc1cccc2[nH]ncc12)N[C@H]1CC[C@@H](c2ccc(C(F)(F)F)cc2)C1 [Example 43, 1-(1H-indazol-4-yl)-3-{(1S,3R)-3-[4-(trifluoromethyl)phenyl]cyclopentyl}urea] | 221 | 55 |
| O=C(Nc1cccc2[nH]ncc12)N[C@@H]1CC[C@@H](c2ccc(C(F)(F)F)cc2)C1 [Example 44, 1-(1H-indazol-4-yl)-3-{(1R,3R)-3-[4-(trifluoromethyl)phenyl]cyclopentyl}urea] | 169 | 13 |
| O=C(Nc1cccc2[nH]ncc12)NC1CC[C@H](c2ccc(F)cc2)C1 (stereo partly drawn) [Example 45, 1-[(3S)-3-(4-fluorophenyl)cyclopentyl]-3-(1H-indazol-4-yl)urea] | 26 | 9 |
| CSc1ccc([C@H]2CCC(NC(=O)Nc3cccc4[nH]ncc34)C2)cc1 (stereo partly drawn) [Example 46, 1-(1H-indazol-4-yl)-3-{(3S)-3-[4-(methylsulfanyl)phenyl]cyclopentyl}urea] | 87 | 7 |
| CN(C)c1ccc([C@H]2CCC(NC(=O)Nc3cccc4[nH]ncc34)C2)cc1 (stereo partly drawn) [Example 47, 1-{(3S)-3-[4-(dimethylamino)phenyl]cyclopentyl}-3-(1H-indazol-4-yl)urea] | 290 | 3 |
| O=C(Nc1cccc2[nH]ncc12)N[C@H]1CC[C@@H](C2CCCCC2)C1 [Example 49, 1-((1S,3R)-3-cyclohexylcyclopentyl)-3-(1H-indazol-4-yl)urea] | 66 | 68 |
| Cn1c(=O)ccc2c(NC(=O)N[C@H]3CC[C@@H](c4ccccc4)C3)cccc21 [Example 50, 1-(1-methyl-2-oxo-1,2-dihydroquinolin-5-yl)-3-((1S,3R)-3-phenylcyclopentyl)urea] | 78 | 59 |
| O=C(Nc1cccc2[nH]ncc12)N[C@H]1C[C@@H](c2ccccc2)[C@@H](O)[C@H]1O [Example 52, 1-((1S,2S,3R,4S)-2,3-dihydroxy-4-phenylcyclopentyl)-3-(1H-indazol-4-yl)urea] | 22400 | 67 |
| O=C(Nc1cccc2[nH]ncc12)N[C@H]1C[C@@H](c2ccccc2)[C@H](O)[C@@H]1O [Example 53, 1-((1S,2R,3S,4S)-2,3-dihydroxy-4-phenylcyclopentyl)-3-(1H-indazol-4-yl)urea] | > 37500 | 84 |
| O=C(Nc1cccc2[nH]ncc12)N[C@@H]1C[C@H](c2ccccc2)[C@@H]2[C@H]1C2(F)F [Example 54, 1-((1R,2R,4S,5R)-6,6-difluoro-4-phenylbicyclo[3.1.0]hex-2-yl)-3-(1H-indazol-4-yl)urea] | 1340 | 69 |
| O=C(Nc1cccc2[nH]ncc12)N[C@@H]1C[C@H](c2ccccc2)[C@@H]2C[C@@H]21 [Example 55, 1-(1H-indazol-4-yl)-3-((1S,2R,4S,5S)-4-phenylbicyclo[3.1.0]hex-2-yl)urea] | 37 | 11 |
| O=C(Nc1cccc2[nH]ncc12)N[C@H]1C[C@@H](c2ccccc2)C1 [Example 56, 1-(1H-indazol-4-yl)-3-(cis-3-phenylcyclobutyl)urea] | 14 | 10 |
| O=C(Nc1cccc2[nH]ncc12)N[C@H]1C[C@H](c2ccccc2)C1 [Example 57, 1-(1H-indazol-4-yl)-3-(trans-3-phenylcyclobutyl)urea] | 64 | 4 |
| O=C(Nc1cccc2c1C[C@H](O)C2)N[C@H]1C[C@H](c2ccccc2)C1 [Example 59, 1-[(2R)-2-hydroxy-2,3-dihydro-1H-inden-4-yl]-3-(trans-3-phenylcyclobutyl)urea] | 435 | 79 |
| O=C(Nc1cccc2c1C[C@H](O)C2)N[C@H]1C[C@@H](c2ccccc2)C1 [Example 60, 1-[(2R)-2-hydroxy-2,3-dihydro-1H-inden-4-yl]-3-(cis-3-phenylcyclobutyl)urea] | 331 | 72 |
